The target in assay [1] is Mu-type opioid receptor (Cavia porcellus, UniProt P97266). Briefly: Activity at mu opioid receptor by guinea pig ileum assay. It counts as functional, tissue-based.
Assay [2] addresses Mu-type opioid receptor (Rattus norvegicus, UniProt P33535). Briefly: Displacement of [3H]DAMGO from mu opioid receptor in rat synaptosomes P2 fraction. It counts as subcellular, Brain. A general note: Displacement assays read how much labelled ligand stays bound in the presence of the test substance.
The target in assay [3] is Delta-type opioid receptor (Rattus norvegicus, UniProt P33533). The assay can be described thus: Displacement of [3H]deltorphin II from delta opioid receptor in rat synaptosomes P2 fraction. Format: subcellular, Brain.
Sequence of Delta-type opioid receptor (Rattus norvegicus, UniProt P33533) (P33533 whole entry): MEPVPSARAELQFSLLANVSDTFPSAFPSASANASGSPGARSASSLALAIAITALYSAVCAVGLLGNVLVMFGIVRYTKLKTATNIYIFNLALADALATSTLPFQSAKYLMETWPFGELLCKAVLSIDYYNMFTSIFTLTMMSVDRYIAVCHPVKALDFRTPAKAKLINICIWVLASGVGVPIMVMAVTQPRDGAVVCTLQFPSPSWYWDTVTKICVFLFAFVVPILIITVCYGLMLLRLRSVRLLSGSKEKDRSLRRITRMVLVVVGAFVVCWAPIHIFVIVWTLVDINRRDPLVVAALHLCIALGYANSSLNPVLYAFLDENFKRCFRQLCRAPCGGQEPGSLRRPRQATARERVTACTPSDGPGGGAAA
Assay [4] has as its target Opioid receptors; mu & delta (Rattus norvegicus) (UniProt P33533+P33535). The assay can be described thus: Selectivity for rat mu opioid receptor over rat delta opioid receptor. It counts as protein assay.
The target in assay [5] is Delta-type opioid receptor (Mus musculus) (UniProt P32300). The assay can be described thus: (§1) Activity at delta opioid receptor assessed as inhibition of muscle contraction in mouse vas deferens assay. Conditions: for inhibition: concentration not given here; for Activity: filed as partial agonist. It counts as functional, tissue-based.
Sequence of Delta-type opioid receptor (Mus musculus) (P32300 whole entry): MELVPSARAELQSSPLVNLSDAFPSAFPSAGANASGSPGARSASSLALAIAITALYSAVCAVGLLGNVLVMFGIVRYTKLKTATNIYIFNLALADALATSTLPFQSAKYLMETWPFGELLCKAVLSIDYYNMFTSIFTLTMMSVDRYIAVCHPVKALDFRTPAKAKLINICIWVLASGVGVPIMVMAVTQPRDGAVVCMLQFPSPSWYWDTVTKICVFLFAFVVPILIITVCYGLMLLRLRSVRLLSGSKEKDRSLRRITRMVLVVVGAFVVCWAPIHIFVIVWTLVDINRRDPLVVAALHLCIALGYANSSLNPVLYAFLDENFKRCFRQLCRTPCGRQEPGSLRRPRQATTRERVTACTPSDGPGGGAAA
The target in assay [6] is Delta-type opioid receptor (Mus musculus, UniProt P32300). Described as §1. Format: functional, tissue-based.
Sequence of Delta-type opioid receptor (Mus musculus, UniProt P32300) (P32300 whole entry): as above

Sequence of Opioid receptors; mu & delta (Rattus norvegicus) (P33533 whole entry, looked up): as the sequence (P33533 whole entry) above
Sequence of Opioid receptors; mu & delta (Rattus norvegicus) (P33535 whole entry, looked up): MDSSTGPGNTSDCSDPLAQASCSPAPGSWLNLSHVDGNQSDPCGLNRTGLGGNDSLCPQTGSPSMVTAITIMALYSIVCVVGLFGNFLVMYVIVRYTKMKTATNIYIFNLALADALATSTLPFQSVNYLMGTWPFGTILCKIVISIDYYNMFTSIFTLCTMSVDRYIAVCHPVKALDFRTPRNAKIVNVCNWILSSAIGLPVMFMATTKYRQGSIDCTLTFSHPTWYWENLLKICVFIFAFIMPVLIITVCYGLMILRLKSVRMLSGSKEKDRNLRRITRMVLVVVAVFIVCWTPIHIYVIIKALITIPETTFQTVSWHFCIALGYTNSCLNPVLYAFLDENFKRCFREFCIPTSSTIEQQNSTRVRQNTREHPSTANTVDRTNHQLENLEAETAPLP
Sequence of Mu-type opioid receptor (Rattus norvegicus, UniProt P33535) (P33535 whole entry): as the sequence (P33535 whole entry, looked up) above
Sequence of Mu-type opioid receptor (Cavia porcellus, UniProt P97266) (P97266 whole entry): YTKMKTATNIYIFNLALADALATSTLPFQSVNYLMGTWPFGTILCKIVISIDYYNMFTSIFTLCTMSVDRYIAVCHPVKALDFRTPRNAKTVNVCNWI

Take `Cc1cc(O)cc(C)c1C[C@H](N)C(=O)NCCCCc1[nH]c(=O)c(CCCNC(=O)[C@@H](N)Cc2c(C)cc(O)cc2C)nc1C`: the IC50 (in general, the point on the concentration scale where inhibition reaches its midpoint) on Mu-type opioid receptor [1] was 4.93 nM; in assay [6], greater than 10000 nM. The Ki (usually the equilibrium dissociation constant of an inhibitor or competing ligand from its target) on Mu-type opioid receptor [2] is 0.051 nM; in assay [3], 18.8 nM. In addition, in assay [4], the Ratio Ki amounted to 369. For the same compound, the inhibition (as a rule, the change of the read-out against control, counted positive when it falls) in assay [5] amounted to 44%. The Activity result in assay [5] is “Partial agonist”.

As for `Cc1nc(CCCCNC(=O)[C@@H](N)Cc2ccc(O)cc2)c(=O)[nH]c1CCCNC(=O)[C@@H](N)Cc1ccc(O)cc1`, the values for the Ki (at Mu-type opioid receptor [2]; in assay [3]) were 7.58 nM and 924 nM, respectively. The Ratio Ki in assay [4] was 220.

For the compound `Cc1nc(CCCNC(=O)[C@@H](N)Cc2ccc(O)cc2)c(=O)[nH]c1CCCCNC(=O)[C@@H](N)Cc1ccc(O)cc1`, the Ki is 27.4 nM on Mu-type opioid receptor [2] and 2770 nM in assay [3]. Also, the Ratio Ki in assay [4] came to 65.

For `Cc1cc(O)cc(C)c1C[C@H](N)C(=O)NCCCCc1nc(C)c(CCCNC(=O)[C@@H](N)Cc2c(C)cc(O)cc2C)[nH]c1=O`, the IC50 on Mu-type opioid receptor [1] amounted to 1.79 nM; in assay [6], 25.8 nM. Moreover, the figures for the Ki (at Mu-type opioid receptor [2]; in assay [3]) were 0.021 nM and 31.9 nM, respectively. Moreover, in assay [4], the Ratio Ki was determined as 1520. Moreover, the inhibition in assay [5] is 60%. The Activity entry in assay [5] is “Partial agonist”.
